Results taken from the supplement of paper PMC10307832.

Key:
Assay in all cases: relative viability (nuclei count vs DMSO), 5 days (fraction); higher = more cells survive
[1] = compound: CC1(C)CCC(CN2CCN(c3ccc(C(=O)NS(=O)(=O)c4ccc(NCC5CCOCC5)c([N+](=O)[O-])c4)c(Oc4cnc5[nH]ccc5c4)c3)CC2)=C(c2ccc(Cl)cc2)C1 [Venetoclax] + COc1cc2c(Oc3ccc(NC(=O)C4(C(=O)Nc5ccc(F)cc5)CC4)cc3F)ccnc2cc1OCCCN1CCOCC1 [Foretinib] (partner 0.25 µM)
Outline: (§1)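 For relative viability, nuclei counts in treated wells were divided by those in vehicle wells. Lung cancer cell lines had been pin-tool dosed in 1536-well plates the day after seeding and cultured for 5 days, then fixed and stained in one step (final 0.05% Triton X-100, 1% formaldehyde, 1 ug/ml Hoechst) and imaged at 4×. Doses were one drug alone or a fixed anchor-drug dose plus five library-drug doses (not always all listed) in √10 steps, and values are duplicate-plate medians.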

[2] = compound: Cn1cnc2c(F)c(Nc3ccc(Br)cc3Cl)c(C(=O)NOCCO)cc21 [Selumetinib] + O=C(c1cc(Cc2n[nH]c(=O)c3ccccc23)ccc1F)N1CCN(C(=O)C2CC2)CC1 [Olaparib] (partner 8 µM)
Outline: as §1

[3] = compound: Cn1cnc2c(F)c(Nc3ccc(Br)cc3Cl)c(C(=O)NOCCO)cc21 [Selumetinib] + Cc1cc(Nc2cc(N3CCN(C)CC3)nc(Sc3ccc(NC(=O)C4CC4)cc3)n2)n[nH]1 [Tozasertib] (partner 0.1 µM)
Outline: as §1

[4] = compound: CC1(C)CCC(CN2CCN(c3ccc(C(=O)NS(=O)(=O)c4ccc(NCC5CCOCC5)c([N+](=O)[O-])c4)c(Oc4cnc5[nH]ccc5c4)c3)CC2)=C(c2ccc(Cl)cc2)C1 [Venetoclax] + CS(=O)(=O)N1CCN(Cc2cc3nc(-c4cccc5[nH]ncc45)nc(N4CCOCC4)c3s2)CC1 [Pictilisib] (partner 1 µM)
Outline: as §1

Row | Cell Line | relative viability ([1]; first compound 0.01 µM) | relative viability ([1]; first compound 0.03162 µM) | relative viability ([1]; first compound 0.1 µM) | relative viability ([1]; first compound 0.3162 µM) | relative viability ([1]; first compound 1 µM) | relative viability ([2]; first compound 0.02 µM) | relative viability ([2]; first compound 0.06325 µM) | relative viability ([2]; first compound 0.2 µM) | relative viability ([2]; first compound 0.6325 µM) | relative viability ([3]; first compound 0.02 µM) | relative viability ([3]; first compound 0.06325 µM) | relative viability ([3]; first compound 0.2 µM) | relative viability ([3]; first compound 0.6325 µM) | relative viability ([4]; first compound 0.01 µM) | relative viability ([4]; first compound 0.03162 µM) | relative viability ([4]; first compound 0.1 µM) | relative viability ([4]; first compound 0.3162 µM) | relative viability ([4]; first compound 1 µM)
1 | LXF-289 | 1.05 | 0.975 | 0.991 | 0.941 | 0.913 | 1.04 | 1.01 | 0.963 | 1.04 | 0.219 | 0.229 | 0.191 | 0.159 | 0.718 | 0.739 | 0.795 | 0.771 | 0.762
2 | ChaGo-K-1 | 1.02 | 0.944 | 0.889 | 0.916 | 0.949 | 0.43 | 0.414 | 0.398 | 0.39 | 0.212 | 0.237 | 0.222 | 0.204 | 0.91 | 0.998 | – | 0.825 | 0.727
3 | NCI-H2347 | 1.05 | 1.39 | 0.85 | 0.883 | 0.854 | 0.386 | 0.467 | 0.403 | 0.355 | 0.505 | 0.489 | 0.35 | 0.228 | 0.606 | 0.606 | 0.668 | 0.746 | 0.123
4 | RERF-LC-KJ | 0.793 | 0.94 | 0.871 | 0.927 | 0.784 | 0.878 | 0.896 | 0.889 | 0.892 | 0.541 | 0.489 | 0.465 | 0.44 | 0.523 | 0.607 | 0.512 | 0.513 | 0.571
5 | NCI-H1650 | 1.12 | 1.11 | 1.13 | 1.2 | 1.07 | 0.669 | 0.654 | 0.712 | 0.646 | 0.332 | 0.394 | 0.312 | 0.308 | 0.531 | 0.713 | – | 0.723 | 0.622
6 | NCI-H596 | 0.77 | 0.877 | 1 | 0.956 | 0.743 | 0.596 | 0.663 | 0.572 | 0.599 | 0.883 | 0.899 | 0.668 | 0.648 | 0.402 | 0.408 | 0.354 | 0.391 | 0.364
7 | NCI-H1734 | 0.88 | 0.871 | 0.794 | 0.823 | 0.878 | 0.604 | 0.391 | 0.557 | 0.56 | 0.244 | 0.251 | 0.234 | 0.227 | 0.507 | 0.508 | 0.398 | 0.513 | 0.488
8 | NCI-H1915 | 1.08 | 1.01 | 1.06 | 1.01 | 1.01 | 0.259 | 0.248 | 0.214 | 0.192 | 0.428 | 0.568 | 0.319 | 0.303 | 0.953 | 0.911 | 0.894 | 0.979 | 0.92
9 | NCI-H838 | 1.05 | 1.04 | 1.06 | 1.05 | 0.961 | 0.727 | 0.67 | 0.652 | 0.662 | 0.261 | 0.226 | 0.229 | 0.245 | 0.661 | 0.48 | 0.474 | 0.465 | 0.534
10 | HCC-15 | 0.998 | 1.02 | 0.96 | 0.931 | 0.825 | 0.694 | 0.622 | 0.575 | 0.368 | 0.372 | 0.209 | 0.268 | 0.158 | 0.652 | 0.804 | 0.629 | 0.706 | 0.701
11 | NCI-H650 | 0.98 | 0.964 | 1.06 | 0.996 | 1.01 | 0.478 | 0.514 | 0.47 | 0.526 | 0.85 | 0.692 | 0.864 | 0.533 | 0.805 | 0.855 | – | 0.842 | 0.797
12 | NCI-H1651 | 0.876 | 0.787 | 0.834 | 0.823 | 0.808 | 0.189 | 0.201 | 0.182 | 0.171 | 0.644 | 0.643 | 0.591 | 0.537 | 0.6 | 0.626 | 0.481 | 0.482 | 0.533
13 | NCI-H2405 | 1.03 | 1.08 | 1.01 | 0.999 | 1.04 | 0.85 | 0.762 | 0.844 | 0.581 | 0.734 | 0.673 | 0.692 | 0.478 | 0.505 | 0.472 | – | 0.394 | 0.402
14 | LU99A | 0.821 | 0.854 | 0.78 | 0.747 | 0.825 | 0.253 | 0.265 | 0.287 | 0.267 | 0.274 | 0.278 | 0.266 | 0.276 | 0.321 | 0.357 | 0.362 | 0.297 | 0.319
15 | H3255 | 0.835 | 1 | 0.865 | 0.893 | 0.788 | 0.554 | 0.586 | 0.603 | 0.536 | 0.624 | 0.687 | 0.74 | 0.556 | 0.47 | 0.527 | 0.457 | 0.486 | 0.482
16 | NCI-H1993 | 0.786 | 0.859 | 0.863 | 0.783 | 0.686 | 1.16 | 0.808 | 0.876 | 0.795 | 0.492 | 0.557 | 0.575 | 0.601 | 1.03 | 0.802 | 0.8 | 0.685 | 0.78
17 | NCI-H322M | 0.939 | 1 | 0.915 | 0.972 | 1.05 | 0.662 | 0.63 | 0.564 | 0.599 | 0.391 | 0.418 | 0.369 | 0.366 | 0.558 | 0.511 | 0.488 | 0.532 | 0.487
18 | NCI-H460 | 0.978 | 0.941 | 0.791 | 0.997 | 0.951 | 0.433 | 0.384 | 0.342 | 0.225 | 0.379 | 0.283 | 0.246 | 0.152 | 0.394 | 0.43 | 0.316 | 0.385 | 0.367
